Assay results published in patent publication US20100041642A1, “UREA INHIBITORS OF MAP KINASES” (LOCUS PHARMACEUTICALS, INC., priority 2008, published 2010).

Target: p38 (Homo sapiens, UniProt Q16539)
Experiment: Protein Kinase Assay (33P incorporation from γ-[33P]ATP into GST-ATF-2)
Assay type: biochemical
Details: 2 nM p38, preincubated 20 min at 30° C.; 10 uM cold ATP, 2 uM GST-ATF2, 70 min; read-out: ACT. (Activity), IC50 category in Protein Kinase Assay
Procedure, shortened: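 Compounds preincubated 20 min at 30 °C with 2 nM p38; reaction started with 2 uM GST-ATF-2 (aa 19-96) and 10 uM ATP plus γ-[33P]ATP, pH 7.5, 70 min at 30 °C, 2% DMSO. Phosphoric acid stop; 33P-labelled substrate captured on phosphocellulose and counted by scintillation.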

Sequence of p38 (Q16539 whole entry): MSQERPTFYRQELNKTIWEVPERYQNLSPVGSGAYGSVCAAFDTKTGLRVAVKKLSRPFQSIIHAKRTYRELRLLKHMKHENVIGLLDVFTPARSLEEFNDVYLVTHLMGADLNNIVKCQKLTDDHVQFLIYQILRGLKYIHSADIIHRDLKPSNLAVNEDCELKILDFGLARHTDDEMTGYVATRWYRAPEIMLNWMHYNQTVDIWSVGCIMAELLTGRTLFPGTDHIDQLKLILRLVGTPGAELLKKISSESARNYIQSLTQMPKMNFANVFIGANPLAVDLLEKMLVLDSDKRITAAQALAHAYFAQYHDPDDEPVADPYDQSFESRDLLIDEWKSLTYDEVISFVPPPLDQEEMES

Row | SMILES | IC50 [nM]
1 | Cc1ccc(NC(=O)Nc2sc(C(C)(C)C)cc2C(=O)N2CCN(C)C(=O)C2(C)C)cc1-c1ccc(N2CCOCC2)nc1 [1-(5-tert-butyl-3-(2,2,4-trimethyl-3-oxopiperazine-1-carbonyl)thiophen-2-yl)-3-(4-methyl-3-(6-morpholinopyridin-3-yl)phenyl)urea] | < 100
2 | Cc1ncc(NC(=O)Nc2sc(C(C)(C)C)cc2C(=O)N2CCN(C)C(=O)C2(C)C)cc1C#CC1CC1 [1-(5-tert-butyl-3-(2,2,4-trimethyl-3-oxopiperazine-1-carbonyl)thiophen-2-yl)-3-(5-(cyclopropylethynyl)-6-methylpyridin-3-yl)urea] | < 100
3 | Cc1ccc(NC(=O)Nc2oc(C(C)(C)C)cc2C(=O)N2CCNC(=O)C2(C)C)cc1-c1ccncc1 [1-(5-tert-butyl-3-(2,2-dimethyl-3-oxopiperazine-1-carbonyl)furan-2-yl)-3-(4-methyl-3-(pyridin-4-yl)phenyl)urea] | < 100
4 | COc1ccc(-c2cc(NC(=O)Nc3sc(C(C)(C)C)cc3C(=O)N3CCNC(=O)C3(C)C)c(F)cc2C)cn1 [1-(5-tert-butyl-3-(2,2-dimethyl-3-oxopiperazine-1-carbonyl)thiophen-2-yl)-3-(2-fluoro-5-(6-methoxypyridin-3-yl)-4-methylphenyl)urea] | < 100
5 | Cc1c(NC(=O)Nc2sc(C(C)(C)C)cc2C(=O)N2CCNC(=O)C2(C)C)cccc1-c1ccc(N2CCOCC2)nc1 [1-(5-tert-butyl-3-(2,2-dimethyl-3-oxopiperazine-1-carbonyl)thiophen-2-yl)-3-(2-methyl-3-(6-morpholinopyridin-3-yl)phenyl)urea] | < 100
6 | Cc1ccc(-c2ccc(N3CCOCC3)nc2)cc1NC(=O)Nc1sc(C(C)(C)C)cc1C(=O)N1CCNC(=O)C1(C)C [1-(5-tert-butyl-3-(2,2-dimethyl-3-oxopiperazine-1-carbonyl)thiophen-2-yl)-3-(2-methyl-5-(6-morpholinopyridin-3-yl)phenyl)urea] | < 100
7 | Cc1ncc(NC(=O)Nc2sc(C(C)(C)C)cc2C(=O)N2CCNC(=O)C2(C)C)cc1-c1ccc(N2CCOCC2)nc1 [1-(5-tert-butyl-3-(2,2-dimethyl-3-oxopiperazine-1-carbonyl)thiophen-2-yl)-3-(2-methyl-6′-morpholino-3,3′-bipyridin-5-yl)urea] | < 100
8 | CC(C)(C)c1cc(C(=O)N2CCNC(=O)C2(C)C)c(NC(=O)Nc2cccc(-c3ccnc(F)c3)c2)s1 [1-(5-tert-butyl-3-(2,2-dimethyl-3-oxopiperazine-1-carbonyl)thiophen-2-yl)-3-(3-(2-fluoropyridin-4-yl)phenyl)urea] | < 100
9 | Cc1nc(-c2cccc(NC(=O)Nc3sc(C(C)(C)C)cc3C(=O)N3CCNC(=O)C3(C)C)c2)cs1 [1-(5-tert-butyl-3-(2,2-dimethyl-3-oxopiperazine-1-carbonyl)thiophen-2-yl)-3-(3-(2-methylthiazol-4-yl)phenyl)urea] | < 100
10 | Cc1ccc(NC(=O)Nc2sc(C(C)(C)C)cc2C(=O)N2CCNC(=O)C2(C)C)cc1-c1c(C)noc1C [1-(5-tert-butyl-3-(2,2-dimethyl-3-oxopiperazine-1-carbonyl)thiophen-2-yl)-3-(3-(3,5-dimethylisoxazol-4-yl)-4-methylphenyl)urea] | < 100
11 | COCCOCC#Cc1cc(NC(=O)Nc2sc(C(C)(C)C)cc2C(=O)N2CCNC(=O)C2(C)C)ccc1C [1-(5-tert-butyl-3-(2,2-dimethyl-3-oxopiperazine-1-carbonyl)thiophen-2-yl)-3-(3-(3-(2-methoxyethoxy)prop-1-ynyl)-4-methylphenyl)urea] | < 100
12 | CN1CCN(c2cccc(NC(=O)Nc3sc(C(C)(C)C)cc3C(=O)N3CCNC(=O)C3(C)C)c2)CC1 [1-(5-tert-butyl-3-(2,2-dimethyl-3-oxopiperazine-1-carbonyl)thiophen-2-yl)-3-(3-(4-methylpiperazin-1-yl)phenyl)urea] | < 10000
13 | CCc1ccc(-c2cc(NC(=O)Nc3sc(C(C)(C)C)cc3C(=O)N3CCNC(=O)C3(C)C)ccc2C)nc1 [1-(5-tert-butyl-3-(2,2-dimethyl-3-oxopiperazine-1-carbonyl)thiophen-2-yl)-3-(3-(5-ethylpyridin-2-yl)-4-methylphenyl)urea] | < 100
